Data on five molecules can be found in patent US20030073618A1, “Compounds comprising disulfide-containing peptides and nitrogenous bases, and medical uses thereof” (priority 2001, published 2003).

Marks after values point to notes of the source that are not given here.

The test system of experiment [1] is hepatitis B virus (HBV). Kind of experiment: Efficacy study in chronic viral hepatitis B, 62 patients (Tables 47-49). Format: in vivo, human. The conditions noted are these: month 1 (after treatment). The text has this:
State of patient upon completion of treatment.

Experiment [2] deals with hepatitis B virus (HBV). The experiment is described as above. Format: in vivo, human.
A further experiment concerns hepatitis C virus (HCV). The experiment in a line: Efficacy study in chronic viral hepatitis C, 74 patients (Tables 54-55).
The test system of experiment [3] is white rats with DMNA-induced liver cirrhosis. The experiment in a line: Experimental dimethylnitrosamine (DMNA)-induced liver cirrhosis in rats. Format: in vivo. The method, then: The method of Jezequel, A. M. et al. was used to induce liver cirrhosis in the rats. (Dimethylnitrosamine-induced cirrhosis. Evidence for an immunological mechanism. J. […] DMNA was dissolved by normal saline. To obtain considerable cirrhosis 4 such injection cycles were sufficient. For morphologic examination after narcotized euthanasia samples of liver tissue from central and right side lobes were taken. The liver samples were fixated by mixture of formalin, alcohol and acetic acid. […] The van-Gison stained samples where collagen fibers had red color were used for the study. […] By number of pixels forming the selected objects a relative square occupied by developed collagen (connective tissue) in the liver tissue was calculated. The measurement results were statistically processed. The difference significance between mean samples using the Student criterion with significance level of p=0.05. The morphological alterations were assessed on the samples with blind marking reducing risk of aggravation of the study results. The pathologic process and agent efficacy were assessed by clinical signs (weight, appearance, ascites, motional activity, death) as well as morphologic ones after animal necropsy with following morphologic liver sample examination. After development of pathologic process, i.e. in 4 weeks after the DMNA introduction onset, all animals were randomized in 4 groups of 12 animals in each. […] The agents were introduced every other day intramuscularly, in femur muscle.

Setting [4] is: month 2 (1 month after treatment).
Where [5] appears, read: month 4 (3 months after treatment).

Take `CC(=O)OCC(CCn1cnc2cnc(N)nc21)COC(C)=O` [Famvir]: the “ALT in Chronic HBV Infection” value was “**70.2 ± 9.1 U/L” with hepatitis B virus (HBV) [1], 165.7 ± 13.8 U/L with hepatitis B virus (HBV) [2] (Baseline (before treatment)), “**75.9 ± 9.6 U/L” with hepatitis B virus (HBV) [2] (setting [4]) and “**77.9 ± 10.2 U/L” in the experiment with hepatitis B virus (HBV) [2] (setting [5]). For the same molecule, the “HbsAg in Chronic HBV Infection” value was “**150.5 ± 10.43 ng/mL” in the experiment on hepatitis B virus (HBV) [1], 157.8 ± 8.84 ng/mL with hepatitis B virus (HBV) [2] (Baseline (before treatment)), “**153.5 ± 10.14 ng/mL” with hepatitis B virus (HBV) [2] (setting [4]) and “**132.5 ± 43.76 ng/mL” in the experiment on hepatitis B virus (HBV) [2] (setting [5]). Further, the “PCR (%) in Chronic HBV Infection” value in the experiment with hepatitis B virus (HBV) [1] was “**50.0* %”; in the experiment with hepatitis B virus (HBV) [2] (Baseline (before treatment)), 100%; in the experiment on hepatitis B virus (HBV) [2] (setting [4]), “**60.0%”; in the experiment on hepatitis B virus (HBV) [2] (setting [5]) it was “**20.0%”.

As to `Nc1ccn([C@H]2CC[C@@H](CO)O2)c(=O)n1` [Hivid], the “ALT in Chronic HCV Infection” value is recorded as 187.5 ± 48.4 U/L in the experiment on hepatitis C virus (HCV) (Baseline (before treatment)), “**190 ± 71.1 U/L” in the experiment with hepatitis C virus (HCV) (month 1 (after treatment)), “**153 ± 25.3 U/L” in the experiment on hepatitis C virus (HCV) (setting [4]) and “**151 ± 25.2 U/L” in the experiment on hepatitis C virus (HCV) (setting [5]).

Consider `C[S+](CC[C@H](N)C(=O)[O-])C[C@H]1O[C@@H](n2cnc3c(N)ncnc32)[C@H](O)[C@@H]1O` (stereo partly shown) [Heptral, S-adenosyl-methionine], for which the Rat weight is reported as 191.0 g in experiment [3] (1 treatment week), 212 g in experiment [3] (3 treatment weeks) and 232 g in experiment [3] (6 treatment weeks). For the same molecule, the “Relative square of the connective tissue in a liver section” value in experiment [3] (3 weeks after cirrhosis modeling completion) amounted to 8.215 ± 0.751%; in experiment [3] (6 weeks after cirrhosis modeling completion), 7.781 ± 0.943 %. Besides, the “Collagen amount lowered comparing to the normal saline control (times)” value stood at 1.7 times in experiment [3] (6-week dosing) and 1.1 times in experiment [3] (treatment for 3 weeks). Also, the “Decrease of liver fibrosis-formation rate” value in experiment [3] (comparison agent) is listed as 35%.

As to `Cc1cn([C@H]2C[C@H](N=[N+]=[N-])[C@@H](CO)O2)c(=O)[nH]c1=O` [Retrovir], the “ALT in Chronic HCV Infection” value with hepatitis C virus (HCV) (Baseline (before treatment)) was 180 ± 20.0 U/L; in the experiment with hepatitis C virus (HCV) (month 1 (after treatment)), “**132.0 ± 51.5 U/L”; in the experiment on hepatitis C virus (HCV) (setting [4]), “**108 ± 40.3 U/L”; in the experiment on hepatitis C virus (HCV) (setting [5]), “**90.0 ± 25.2 U/L”.

In the case of `CC(C)(C)NC(=O)[C@@H]1C[C@@H]2CCCC[C@@H]2CN1C[C@@H](O)[C@H](Cc1ccccc1)NC(=O)[C@H](CC(N)=O)NC(=O)c1ccc2ccccc2n1` [Invirasa], the “ALT in Chronic HBV Infection” value in the experiment on hepatitis B virus (HBV) [1] is “**90.8 ± 5.5 U/L”; in the experiment on hepatitis B virus (HBV) [2] (Baseline (before treatment)), 165.7 ± 17.0 U/L; with hepatitis B virus (HBV) [2] (setting [4]) it was “**71.4 ± 6.5 U/L”; with hepatitis B virus (HBV) [2] (setting [5]) it was “**71.8 ± 7.4 U/L”. The “HbsAg in Chronic HBV Infection” value in the experiment on hepatitis B virus (HBV) [1] was “**109.0 ± 54.5 ng/mL”; in the experiment with hepatitis B virus (HBV) [2] (Baseline (before treatment)) it was 137.0 ± 20.6 ng/mL; with hepatitis B virus (HBV) [2] (setting [4]), “**112.2 ± 22.2 ng/mL”; in the experiment on hepatitis B virus (HBV) [2] (setting [5]), “**172.0 ± 14.5 ng/mL”. In addition, the “PCR (%) in Chronic HBV Infection” value is “**70.0* %” with hepatitis B virus (HBV) [1], 100% in the experiment on hepatitis B virus (HBV) [2] (Baseline (before treatment)), “**60.0* %” in the experiment with hepatitis B virus (HBV) [2] (setting [4]) and “**60.0%” in the experiment with hepatitis B virus (HBV) [2] (setting [5]).
